Experiment [1] has as its target T1, c-KIT kinase (Homo sapiens (Human), UniProt P10721). Nature of the experiment: cKit inhibition assay Method C (electrophoretic mobility shift). The class given is biochemical. The conditions noted are these: read-out: c-KIT % Inhibition. The method, then:
The reaction was started by adding the ATP and incubating for 1 hour at room temperature. […] Phosphorylated and unphosphorylated substrate was separated by charge using electrophoretic mobility shift. Product formed was compared to control wells to determine inhibition or enhancement of enzyme activity.

Experiment [2] deals with T1, c-KIT kinase. Nature of the experiment: c-KIT mass spectral analysis of tryptic digest (MALDI-TOF). The class given is binding. The conditions noted are these: 3 hours incubation at 10× excess of compound. The protocol:
Iodoacetamide was used as the alkylating agent after compound incubation. […] For tryptic digests a 5 μl aliquot (14 pmols) was diluted with 10 ul of 0.1% TFA prior to micro C18 Zip Tipping directly onto the MALDI target using alpha cyano-4-hydroxy cinnamic acid as the matrix (5 mg/ml in 0.1% TFA:acetonitrile 50:50).
The tryptic digest was analyzed by mass spectrometer (MALDI-TOF).

Experiment [3] concerns the target T2, c-KIT (V654A) (Homo sapiens (Human), UniProt P10721, V654A). Nature of the experiment: c-Kit (V654A) Omnia assay with pre-activated enzyme (Method D). Format: biochemical. The settings on record: [ATP]=100 μM, read-out: Mutant c-KIT (V654A) IC50. The method, then: 10× enzyme/ATP stocks were pre-incubated for 30 min at room temperature to pre-activate each enzyme prior to compound exposure. […] Kinase reactions were started with the addition of 45 μL of the Y9 or Y12-Sox peptide substrate and monitored every 30-90 seconds for 60 minutes at λex360/λem485 in a Synergy^4 plate reader from BioTek (Winooski, Vt.).

The target in experiment [4] is T2, c-KIT (V654A). Nature of the experiment: c-Kit (V654A) Omnia assay for potency assessment (Method E). The settings on record: [ATP]=220 μM, read-out: Mutant c-KIT (V654A) IC50 Apparent. Format: biochemical. The protocol:
(§1) Kinase reactions were started with the addition of 45 μL of the Y9 or Y12-Sox peptide substrate and monitored every 30-90 seconds for 60 minutes at λex360/λem485 in a Synergy^4 plate reader from BioTek (Winooski, Vt.).

The target of another experiment is PDGFR-α (Homo sapiens (Human), UniProt P16234). Nature of the experiment: PDGFR inhibition assay Method B (Z'-LYTE biochemical assay). The settings on record: compound at 1 μM. From the text:
The Z'-LYTE™ biochemical assay employs a fluorescence-based, coupled-enzyme format and is based on the differential sensitivity of phosphorylated and non-phosphorylated peptides to proteolytic cleavage.

A further experiment concerns the target c-KIT (T670I) (Homo sapiens (Human), UniProt P10721, T670I). Nature of the experiment: c-Kit (T670I) Omnia assay for potency assessment (Method E). The conditions noted are these: [ATP]=220 μM, read-out: Mutant c-KIT (T670I) IC50 Apparent. Format: biochemical. The protocol:
as §1

pIC50: −log10 of the molar value. Read-outs that look alike come from different tables or passages of the source.

T1 sequence (P10721 26-976): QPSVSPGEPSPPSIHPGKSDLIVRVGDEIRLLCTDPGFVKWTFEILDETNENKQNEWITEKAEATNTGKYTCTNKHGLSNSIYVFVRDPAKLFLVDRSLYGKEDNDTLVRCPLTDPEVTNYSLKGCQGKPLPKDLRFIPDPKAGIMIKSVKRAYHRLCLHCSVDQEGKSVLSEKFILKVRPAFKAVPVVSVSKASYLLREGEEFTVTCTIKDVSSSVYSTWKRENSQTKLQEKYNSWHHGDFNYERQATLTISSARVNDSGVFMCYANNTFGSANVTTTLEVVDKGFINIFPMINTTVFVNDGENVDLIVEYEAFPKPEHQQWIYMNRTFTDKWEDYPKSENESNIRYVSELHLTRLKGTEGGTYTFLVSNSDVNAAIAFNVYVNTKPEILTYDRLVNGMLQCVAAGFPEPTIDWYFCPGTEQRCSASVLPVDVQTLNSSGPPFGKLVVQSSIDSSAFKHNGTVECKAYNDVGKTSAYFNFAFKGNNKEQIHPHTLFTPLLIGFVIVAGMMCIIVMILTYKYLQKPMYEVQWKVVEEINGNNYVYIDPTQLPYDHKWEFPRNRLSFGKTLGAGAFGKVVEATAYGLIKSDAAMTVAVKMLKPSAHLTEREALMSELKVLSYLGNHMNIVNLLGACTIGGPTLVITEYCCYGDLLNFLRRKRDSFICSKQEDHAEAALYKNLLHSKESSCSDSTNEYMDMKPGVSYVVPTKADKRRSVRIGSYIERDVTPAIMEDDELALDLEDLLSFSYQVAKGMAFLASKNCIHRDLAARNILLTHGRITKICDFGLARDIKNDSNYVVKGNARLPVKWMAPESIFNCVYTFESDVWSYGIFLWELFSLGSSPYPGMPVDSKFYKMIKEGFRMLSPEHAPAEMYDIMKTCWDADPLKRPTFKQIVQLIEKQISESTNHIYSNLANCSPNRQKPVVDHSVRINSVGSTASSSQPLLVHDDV
T2 sequence (P10721 26-976 V654A): as the sequence (P10721 26-976) above, with V629A counted along it
Sequence of c-KIT (T670I) (P10721 26-976 T670I): as the sequence (P10721 26-976) above, with T645I counted along it
Sequence of PDGFR-α (P16234 24-1089): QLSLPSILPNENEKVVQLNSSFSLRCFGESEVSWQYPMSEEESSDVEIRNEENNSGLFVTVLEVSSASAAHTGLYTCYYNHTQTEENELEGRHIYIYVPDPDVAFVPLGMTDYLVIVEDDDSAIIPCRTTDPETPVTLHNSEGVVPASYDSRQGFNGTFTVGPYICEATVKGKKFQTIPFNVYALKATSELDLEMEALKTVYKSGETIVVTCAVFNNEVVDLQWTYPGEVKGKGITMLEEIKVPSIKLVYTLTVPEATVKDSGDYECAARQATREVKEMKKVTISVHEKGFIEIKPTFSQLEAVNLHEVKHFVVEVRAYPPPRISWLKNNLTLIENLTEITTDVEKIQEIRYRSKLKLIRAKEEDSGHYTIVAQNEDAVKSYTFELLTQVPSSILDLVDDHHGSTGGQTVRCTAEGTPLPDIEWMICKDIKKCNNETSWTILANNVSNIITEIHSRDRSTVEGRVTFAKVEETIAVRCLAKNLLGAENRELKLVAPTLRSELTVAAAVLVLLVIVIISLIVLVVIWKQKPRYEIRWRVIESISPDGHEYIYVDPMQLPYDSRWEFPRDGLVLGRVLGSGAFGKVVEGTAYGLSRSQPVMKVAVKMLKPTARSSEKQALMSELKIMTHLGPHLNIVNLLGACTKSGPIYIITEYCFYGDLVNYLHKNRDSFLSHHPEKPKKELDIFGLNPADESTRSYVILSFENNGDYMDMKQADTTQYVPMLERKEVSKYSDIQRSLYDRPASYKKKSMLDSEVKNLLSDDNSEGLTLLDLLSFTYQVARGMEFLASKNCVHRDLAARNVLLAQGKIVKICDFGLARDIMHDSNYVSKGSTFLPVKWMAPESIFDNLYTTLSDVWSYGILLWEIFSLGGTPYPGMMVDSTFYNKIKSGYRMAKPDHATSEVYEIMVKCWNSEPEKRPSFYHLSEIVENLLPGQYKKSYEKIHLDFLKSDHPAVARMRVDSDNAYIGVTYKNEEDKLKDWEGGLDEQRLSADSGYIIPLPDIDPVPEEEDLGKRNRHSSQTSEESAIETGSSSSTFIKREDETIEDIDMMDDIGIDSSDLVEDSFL

Take `C=CC(=O)Nc1ccc2cc(C(=O)Nc3ccc(C)c(Nc4nccc(-c5cccnc5)n4)c3)ccc2c1` [II-44, 6-Acryloylaminonaphthalene-2-carboxylic acid[4-methyl-3-(4-pyridin-3-ylpyrimidin-2-ylamino)phenyl]amide]: on c-KIT kinase [1], the inhibition (as a rule, the change of the read-out against control, counted positive when it falls) at 1 µM was 95%.
As for `Cc1ccc(C(=O)Nc2ccc(NC(=O)CCl)c(C(F)(F)F)c2)cc1Nc1nccc(-c2cccnc2)n1` [III-14], on c-KIT kinase [2], the “covalent modification of c-KIT (mass spectral analysis)” value is “covalently bound to c-KIT protein at two target cystein residues: Cys808 (minor) and Cys788 (major)”.
In the case of `Cc1ccc(NC(=O)c2ccc(NC(=O)C(C)Cl)cc2)cc1Nc1nccc(-c2cccnc2)n1` (centres unmarked) [II-54], the pIC50 (usually −log10 of the IC50, conventionally taken in molar units) on c-KIT (V654A) [3] was 5.00.
`Cc1ccc(NC(=O)c2ccc(NC(=O)COC(=O)c3c(Cl)cccc3Cl)cc2)cc1Nc1nccc(-c2cccnc2)n1` [II-26]: on c-KIT kinase [1] (compound at 1 μM, 300 μM ATP), the inhibition at 1 µM amounted to 94%.
Consider `Cc1ccc(NC(=O)c2ccc(NC(=O)CCl)cc2)cc1Nc1nccc(-c2cccnc2)n1` [II-53], for which the negative logarithm of the IC50 (pIC50) on c-KIT (V654A) [4] is 6.59; at c-KIT (V654A) [3] it was 6.03.
`Cc1ccc(NC(=O)c2ccc(NS(=O)(=O)c3ccc(Cl)nc3)cc2)cc1Nc1nccc(-c2cccnc2)n1` [II-41]: the pIC50 at c-KIT (V654A) [4] is 6.76.
On PDGFR-α, `C/C=C/C(=O)Nc1ccc(C(=O)Nc2ccc(C)c(Nc3nccc(-c4cccnc4)n3)c2)cc1` [II-4] yielded an inhibition at 1 µM of 28%.
`Cc1ccc(NC(=O)c2ccc(CN3C(=O)C=CC3=O)cc2)cc1Nc1nccc(-c2cccnc2)n1` [II-8, 4-(2,5-Dioxo-2,5-dihydropyrrol-1-ylmethyl)-N-[4-methyl-3-(4-pyridin-3-yl-pyrimidin-2-ylamino)-phenyl]benzamide]: at c-KIT kinase [1] (compound at 1 μM, 300 μM ATP), the inhibition at 1 µM amounted to 78%.
Turning to `Cc1ccc(C(=O)Nc2ccc(NC(=O)/C=C/CN(C)C)c(C(F)(F)F)c2)cc1Nc1nccc(-c2cccnc2)n1` [III-6], the values for the pIC50 on c-KIT (T670I), at c-KIT (V654A) [4] and on c-KIT (V654A) [3] were 5.81, 6.67 and 5.40, respectively.
As for `C=CC(=O)Nc1ccc(C(=O)Nc2ccc(C)c(Nc3nccc(-c4cccnc4)n3)c2)cc1C(F)(F)F` [II-2], on c-KIT (V654A) [4], the negative logarithm of the IC50 (pIC50) was 7.08.
On to `Cc1ccc(NC(=O)c2ccc(NS(=O)(=O)c3cnccc3Cl)cc2)cc1Nc1nccc(-c2cccnc2)n1` [II-40], for which the negative-log IC50 (pIC50) at c-KIT (V654A) [3] was 5.00.
For the molecule `Cc1ccc(NC(=O)c2ccc(NC(=O)/C=C/CN(C)C)cc2)cc1Nc1nccc(-c2cccnc2)n1` [II-5], the inhibition at 1 µM on c-KIT kinase [1] (compound at 1 μM, 300 μM ATP) was 66%.
On to `Cc1ccc(NC(=O)c2ccc(NC(=O)/C=C/CN(C)C)c(C(F)(F)F)c2)cc1Nc1nccc(-c2cccnc2)n1` [II-55], for which, on c-KIT (V654A) [3], the negative logarithm of the IC50 (pIC50) is 5.04.
As to `C=CC(=O)NCc1ccc(C(=O)Nc2ccc(C)c(Nc3nccc(-c4cccnc4)n3)c2)cc1` [II-6, 4-(Acryloylaminomethyl)-N-[4-methyl-3-(4-pyridin-3-ylpyrimidin-2-ylamino)phenyl]benzamide], the inhibition at 1 µM on c-KIT kinase [1] (compound at 1 μM, 300 μM ATP) was 91%.

For the origin of these results see patent publication US8586600B2, “Heterocyclic compounds and uses thereof” (Celgene Avilomics Research, Inc., priority 2007, dated 2013).
